According to US7973011B2, “Blockade of gamma-secretase activity to promote myelination by oligodendrocytes” (The Board of Trustees of the Leland Stanford Junior …, priority 2006, dated 2011):
Entries after “also recorded” stand apart in the source; their conditions may differ. Where two headings read alike, the source gives them in different places.

Tests used:
γ-secretase active site = γ-secretase active site (Homo sapiens, UniProt P49768); settings: cited from earlier work
γ-secretase [1] = biological target: T1, γ-secretase (Homo sapiens, UniProt P49768); settings: read-out: In cells; cited from earlier work
γ-secretase [2] = biological target: T1, γ-secretase; settings: read-out: Cell-free; cited from earlier work
PS-2 = PS-2 (Homo sapiens, UniProt P49810); settings: cited from earlier work
[3] = system: dorsal root ganglion (DRG) neurons and oligodendrocytes; assay: Myelination of dorsal root ganglion neurons by oligodendrocytes; assay type: cell-based
PS-1 = PS-1 (Homo sapiens, UniProt P49768); settings: cited from earlier work
[4] = system: oligodendrocytes in OPC-RGC reaggregate cocultures; assay: OPC-RGC reaggregate coculture myelination (MBP/NG2 immunostaining); assay type: cell-based, rat
Description: Purification of RGCs. Retinal ganglion cells (RGCs) were purified to >99.5% homogeneity from two- to three-litters of 5-day-old (P5) rat retinae by immunopanning as previously described. Briefly, retinae were digested with papain at 37° C. Following gentle trituration, cells were resuspended in a panning buffer containing insulin (5 μg/ml) and then incubated at room temperature with rabbit anti-macrophage antibodies. Retinal cells were incubated at room temperature sequentially on three immunopanning dishes: two coated with anti-rabbit secondary antibodies (to negatively select macrophages) and the third with T11D7 anti-Thy1 mAb. RGCs were released from the final panning dish with trypsin (Sigma).
To produce reaggregates, RGCs were plated at high density (>1,000 cells/μl) in 400 μl RGC growth medium in wells an 8-well chamber-slide (Nunc) coated with a surface that is not strongly adherent for RGCs (Permanox). One- to three-hours after plating, RGCs were resuspended gently to promote interaction and reaggregation, and this was repeated the following day. Following two days of culture at high density, reaggregates were collected and allowed to settle to separate them from dead RGCs, non-aggregated cells, and small reaggregates (<10 cells). […]

[5] = system: Notch1f/f OPCs on RGC reaggregates; assay: Myelination by floxxed Notch1 OPCs (AdCre/AdEmpty) cocultured with RGC reaggregates; assay type: cell-based, mouse; settings: 1 μM DAPT, six days of coculture, with or without glial Notch1
Description: FIG. 5. […] (A-C) Infection of OPCs from floxxed Notch1 mice (Notch1^f/f) with a recombinant adenovirus for expression of Cre recombinase (AdCre) results in rapid reduction of Notch1 protein. Notch1^f/f-OPCs, purified by immunopanning with anti-PDGFRα, were cultured for 2 days prior to infection for 24 hours with AdCre or a control virus (AdEmpty) at a multiplicity of infection of 10. The next day, cells were re-plated on RGC reaggregate cultures and on coverslips for analysis of Notch1 knockout, which was assessed by immunostaining (a,b) and Western blot analysis 24 hours later (c).
Conditional knockout cells and infection with AdCre. OPCs were purified from P9 Notch1 conditional knockout (gift of A. Rosenthal, Genentech) and presenilin double conditional knockout (gift of Jie Shen, Brigham and Women's hospital) mouse brains by a slight modification of the panning protocol for rat cells as described previously. The first panning dish was coated with mouse anti-mouse Thy1.2 (Serotec) rather than Ran-2. Mouse OPCs were plated on PDL-coated flasks in defined proliferation medium (DMEM supplemented with B27, insulin, 10 ng/ml PDGF, 1 ng/ml NT3, 10 ng/ml CNTF, and forskolin) for 2 days and then passaged onto PDL-coated tissue culture plates at a density of 1 million cells per plate. […]

gamma-secretase = gamma-secretase (Homo sapiens, UniProt P49768); settings: recombinant APP C100 substrate; cited from earlier work

Compound	Displacement (γ-secretase active site)	IC50 (γ-secretase [1])	IC50 (γ-secretase [2])	further results
C[C@@H](NC(=O)Cc1cc(F)cc(F)c1)C(=O)N[C@H]1N=C(c2ccccc2)c2ccccc2N(C)C1=O [Compound E]	YES	0.3 nM	3 nM	
C[C@H](NC(=O)Cc1cc(F)cc(F)c1)C(=O)N[C@H](C(=O)OC(C)(C)C)c1ccccc1 [DAPT]	YES	20 nM	10 nM	competition for the γ-secretase active site in a displacement assay (γ-secretase active site): can compete moderately; inhibition of PS-2 (PS-2): inhibits; myelination of DRG neurons by oligodendrocytes [3]: profoundly enhanced myelination; inhibition of PS-1 (PS-1): inhibits; proportion of MBP+ oligodendrocytes that formed myelin segments ([4]; 1 μM DAPT, six-day cocultures): significantly increased; also recorded: the majority of oligodendrocytes myelinate; proportion of NG2+ OPCs or MBP+ oligodendrocytes ([4]; cocultures with DAPT): did not consistently alter; myelination (proportion of cells that myelinate) [5]: enhances myelination either in the presence (AdEmpty) or absence (AdCre) of glial Notch1
CCC(C)C(NC(=O)C(CCCCNC(=O)OC(C)(C)C)NC(=O)OC(C)(C)C)C(=O)NC(CC(C)C)C1CO1 (stereo not drawn) [Epoxide]		20000 nM	20000 nM	
COC(=O)[C@@H](NC(=O)[C@H](CC(C)C)NC(=O)N(Cc1ccccc1)C[C@@H](O)[C@H](Cc1ccccc1)NC(=O)OC(C)(C)C)C(C)C [III-31-C]	YES	200 nM	10 nM	
CSc1ccc(/C=C2/C(C)=C(CC(=O)O)c3cc(F)ccc32)cc1 [Sulindac sulfide]				inhibition of gamma(42)-secretase activity (gamma-secretase): preferentially inhibits
(Z-LL)2-ketone	YES	> 100000 nM	30000 nM	
Boc-D-Val-Gly-Aib-D-Val-D-Val-D-He-Aib-D-Thr(OBn)-D-Val-Aib-OMe [D-Helical peptide 294]		3000 nM	100 nM	
